Results on 12 compounds are retold here after ChEMBL document CHEMBL1201862, “PubChem BioAssay data set” (2004).

Among the test systems are UACC-257; SN12C; HOP-92; RPMI-8226; UACC-62; SNB-78; NCI-H23; CAKI-1; EKVX; MOLT-4; U-251; COLO 205; OVCAR-3; NCI-H522; SW-620; A549; SR; DU-145; MDA-MB-231; PC-3.
Assay in all cases: DTP human tumour cell line panel, 48 h

SMILES strings stand for the structures.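 The compound was tested at five concentrations on cells cultured in 96-well plates, with a 48-hour exposure period. GI50 = concentration required for 50% inhibition of growth.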 Calls of active or inactive are those of the source. No stated cut-off is given here; in the data, active = GI50 up to about 1.1 µM and inactive = higher.

In general, GI50 refers to the concentration that inhibits growth by half. As for `O=[N+]([O-])c1ccc(/C=N/C23CC4CC(CC(C4)C2)C3)cc1`, the GI50 with UACC-257, with SN12C, in the test with HOP-92, in the test on RPMI-8226, in the test on UACC-62 and in the test on SNB-78 was > 100 µM (inactive) each time. Also, the GI50 with NCI-H23, in the test on CAKI-1, in the test with EKVX, in the test with MOLT-4, in the test on U-251 and in the test with COLO 205 was > 100 µM (inactive) each time. The GI50 in the test on OVCAR-3 and in the test on NCI-H522 was > 100 µM (inactive) in each case.
Turning to `N#CC(C(=O)Nc1ccccc1)C1=C(Cl)C(=O)c2ccccc2C1=O` (stereo not drawn), the GI50 in the test on SW-620 was 20.6 µM (inactive); with UACC-257, 2.05 µM (inactive); in the test with SN12C, 15.7 µM (inactive); in the test on HOP-92, 14.3 µM (inactive); with UACC-62, 16.8 µM (inactive); in the test on SNB-78, 20.1 µM (inactive). Also, the GI50 in the test with NCI-H23 is 18.5 µM (inactive); in the test on CAKI-1, 18 µM (inactive); in the test with A549, 19.6 µM (inactive); in the test with EKVX, 17.5 µM (inactive); with U-251, 27.2 µM (inactive); with COLO 205, 17.5 µM (inactive). Besides, the results for the GI50 in the test with OVCAR-3 and in the test with NCI-H522 were 15.6 µM (inactive) and 15.5 µM (inactive), respectively.
With `CCOC(=O)CC(C)C1(C(=O)OCC)CCCCC1=O` (stereo not drawn), the GI50 was 25.6 µM (inactive) with SR; > 100 µM (inactive) with UACC-257; > 100 µM (inactive) in the test on SN12C; 25.5 µM (inactive) in the test with RPMI-8226; > 100 µM (inactive) in the test with UACC-62; > 100 µM (inactive) in the test on SNB-78. Besides, the GI50 with CAKI-1 is > 100 µM (inactive); in the test with A549, > 100 µM (inactive); in the test with EKVX, > 100 µM (inactive); with MOLT-4, > 100 µM (inactive); in the test on U-251 it was > 100 µM (inactive); in the test on COLO 205 it was 86.7 µM (inactive). Further, the GI50 with OVCAR-3 and in the test on NCI-H522 was > 100 µM (inactive) in each case.
For `O=C1OC(c2ccccc2)=N/C1=C/NC(Cc1ccccc1)C(=O)O` (stereo not drawn), the GI50 in the test on SR, in the test on SW-620, in the test on UACC-257, in the test with SN12C, with RPMI-8226 and in the test with UACC-62 was > 100 µM (inactive) throughout. Besides, the GI50 in the test with SNB-78, in the test on NCI-H23, in the test with CAKI-1, in the test with A549, with EKVX and with MOLT-4 was > 100 µM (inactive) in each case. The GI50 in the test with U-251, in the test on COLO 205, in the test with OVCAR-3 and with NCI-H522 was > 100 µM (inactive) throughout.
With `CC1=NN(C(=O)Cc2ccccc2)C(=O)/C1=C\c1ccc([N+](=O)[O-])cc1`, the GI50 in the test on SW-620 was > 100 µM (inactive); in the test on UACC-257, > 100 µM (inactive); with SN12C it was > 100 µM (inactive); with HOP-92, 1.15 µM (inactive); with RPMI-8226, > 100 µM (inactive); in the test with UACC-62, > 100 µM (inactive). The GI50 in the test on SNB-78, with NCI-H23, in the test with CAKI-1, in the test on A549, with EKVX and in the test with MOLT-4 was > 100 µM (inactive) throughout. Moreover, the GI50 in the test on U-251, with COLO 205, with OVCAR-3 and in the test with NCI-H522 was > 100 µM (inactive) each time.
As for `CN1C(=O)N(c2nc3ccccc3[nH]2)C(C)(C)C1=O`, the GI50 with SR, in the test on SW-620, with UACC-257, in the test on SN12C, with RPMI-8226 and with UACC-62 was > 100 µM (inactive) each time. Moreover, the GI50 in the test on SNB-78, with NCI-H23, in the test on A549, in the test with EKVX, with MOLT-4 and with U-251 was > 100 µM (inactive) in each case. The GI50 in the test with COLO 205, with OVCAR-3 and in the test with NCI-H522 was > 100 µM (inactive) throughout.
On to `Clc1ccccc1C1N2CCCCC2[C@@H]2c3[nH]c4ccccc4c3CCN12` (stereo partly drawn), for which the GI50 in the test with SW-620 is 17.3 µM (inactive); in the test with UACC-257 it was 18.7 µM (inactive); in the test on SN12C, 16.7 µM (inactive); in the test with HOP-92, 41.7 µM (inactive); in the test on RPMI-8226, 23.8 µM (inactive); in the test with UACC-62, 15 µM (inactive). In addition, the GI50 in the test on SNB-78 was 25.4 µM (inactive); with NCI-H23, 23.6 µM (inactive); in the test with CAKI-1, > 10 µM (inactive); in the test with A549, > 10 µM (inactive); in the test with EKVX, 40.1 µM (inactive); with MOLT-4, 31 µM (inactive). For the same compound, the GI50 with U-251 is 17.7 µM (inactive); with COLO 205, 19.3 µM (inactive); in the test on OVCAR-3 it was 16.2 µM (inactive).
For the compound `O=C1C(Cl)C(c2cc(Br)cc(Br)c2O)N1n1cnc2ccccc2c1=O` (stereo not drawn), the GI50 in the test on SR is 7.76 µM (inactive); with SW-620, 35.8 µM (inactive); in the test with UACC-257, 18.7 µM (inactive); in the test with SN12C, 27.5 µM (inactive); with RPMI-8226 it was 12.6 µM (inactive); in the test with UACC-62 it was 19.2 µM (inactive). Also, the GI50 was 20.7 µM (inactive) in the test with SNB-78; 23.8 µM (inactive) with NCI-H23; 17.7 µM (inactive) with CAKI-1; 65.9 µM (inactive) in the test on A549; 25.1 µM (inactive) in the test with EKVX; 7.46 µM (inactive) in the test with MOLT-4. The GI50 with U-251 is 6.35 µM (inactive); in the test with COLO 205 it was 29.2 µM (inactive); in the test on OVCAR-3, 22.3 µM (inactive); in the test on NCI-H522, 19 µM (inactive).
Turning to `NC1=C(O)c2cccc3cccc(c23)C1=O`, the GI50 with SW-620, in the test on UACC-257, in the test with SN12C, with HOP-92, in the test on RPMI-8226 and with UACC-62 was > 100 µM (inactive) in each case. The GI50 with SNB-78, with NCI-H23, with CAKI-1, in the test on A549, in the test with EKVX and in the test with MOLT-4 was > 100 µM (inactive) throughout. Also, the GI50 in the test with U-251, in the test with COLO 205, in the test on OVCAR-3 and in the test on NCI-H522 was > 100 µM (inactive) in each case.
For the compound `N=C(N)NS(=O)(=O)c1ccc(NNc2c3ccccc3nc3ccccc23)cc1`, the GI50 in the test on SR was 0.596 µM (active); in the test with SW-620, 9.31 µM (inactive); with UACC-257, 20 µM (inactive); in the test on DU-145, 2.58 µM (inactive); in the test on SN12C it was 4.23 µM (inactive); in the test with HOP-92, 2.96 µM (inactive). Further, the GI50 in the test with RPMI-8226 was 12.6 µM (inactive); with UACC-62, 11.9 µM (inactive); with MDA-MB-231 it was 15.7 µM (inactive); with NCI-H23, 9.29 µM (inactive); in the test with CAKI-1, 15.8 µM (inactive); in the test on A549, 9.1 µM (inactive). Moreover, the GI50 is 10.6 µM (inactive) with EKVX; 8.75 µM (inactive) in the test on PC-3; 0.472 µM (active) in the test with MOLT-4; 5.97 µM (inactive) with U-251; 12.6 µM (inactive) in the test on COLO 205; 4.04 µM (inactive) in the test with OVCAR-3. The GI50 in the test with NCI-H522 was 3.86 µM (inactive).
Turning to `COC(=O)Nc1nc2cc(S(=O)(=O)Nc3ccccn3)ccc2[nH]1`, the GI50 is 21.1 µM (inactive) with SR; 17.1 µM (inactive) with SW-620; 17.7 µM (inactive) in the test on UACC-257; 71.1 µM (inactive) in the test with DU-145; 92 µM (inactive) in the test with SN12C; 30.5 µM (inactive) in the test with HOP-92. The GI50 was 14 µM (inactive) in the test with RPMI-8226; 42.6 µM (inactive) in the test with UACC-62; > 100 µM (inactive) in the test on MDA-MB-231; 50.1 µM (inactive) in the test on NCI-H23; 47 µM (inactive) in the test on CAKI-1; 80.7 µM (inactive) with A549. Further, the GI50 in the test with EKVX is > 100 µM (inactive); in the test with PC-3, 65.8 µM (inactive); in the test on MOLT-4 it was 25.5 µM (inactive); with U-251, 67.5 µM (inactive); in the test on COLO 205 it was 32.7 µM (inactive); with OVCAR-3, 32.4 µM (inactive). Moreover, the GI50 with NCI-H522 is 45.2 µM (inactive).
Regarding `COC(=O)[C@]1(c2cc3ccccc3n2S(=O)(=O)c2ccccc2)CC2CN(C(C)=O)C1CC2=O` (stereo partly drawn), the GI50 with SR was 1.59 µM (inactive); in the test on SW-620 it was 1.94 µM (inactive); in the test on UACC-257 it was 2.77 µM (inactive); with DU-145, 3.46 µM (inactive); in the test with SN12C, 2.68 µM (inactive); with HOP-92, 5.52 µM (inactive). Besides, the GI50 in the test on RPMI-8226 is 0.65 µM (active); in the test on UACC-62 it was 1.67 µM (inactive); in the test on MDA-MB-231, 2.58 µM (inactive); in the test on NCI-H23, 3.1 µM (inactive); in the test with CAKI-1, 2.68 µM (inactive); in the test on A549, 3.05 µM (inactive). Further, the GI50 in the test with EKVX was 2.02 µM (inactive); in the test with PC-3 it was 1.64 µM (inactive); in the test with MOLT-4 it was 0.855 µM (active); in the test with U-251, 1.6 µM (inactive); in the test on COLO 205 it was 2.42 µM (inactive); in the test on OVCAR-3, 1.99 µM (inactive). For the same compound, the GI50 in the test on NCI-H522 was 1.75 µM (inactive).
